Values joined by “and” are separate entries in the source; they are usually repeats but may differ in a detail not shown here. Equal entries are not always repeated. Inconclusive results and toxic doses are left out.
Test system: BDF1 mice, B16 melanoma ip, median survival T/C
Assay: NCI In Vivo Anticancer Drug Screen. Data for tumor model B16 Melanoma (intraperitoneal) in B6D2F1 (BDF1) mice
Details: endpoint: median survival time, higher = longer survival
In short: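 In this screen, activity was judged from survival or tumor size in treated versus vehicle-treated tumor-bearing mice, reported as T/C.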

[1] = dose: 2.5 mg/kg/injection, schedule: Q01DX009 (ip), vehicle: saline with Tween-80
[2] = dose: 5.0 mg/kg/injection, schedule: Q01DX009 (ip), vehicle: saline with Tween-80
[3] = dose: 6.25 mg/kg/injection, schedule: Q01DX009 (ip), vehicle: saline with Tween-80
[4] = dose: 12.5 mg/kg/injection, schedule: Q01DX009 (ip), vehicle: saline with Tween-80
[5] = dose: 25.0 mg/kg/injection, schedule: Q01DX009 (ip), vehicle: saline with Tween-80
[6] = dose: 6.25 mg/kg/injection, schedule: Q01DX009 (ip), vehicle: Klucel (hydroxypropylcellulose) (HPC)
[7] = dose: 12.5 mg/kg/injection, schedule: Q01DX009 (ip), vehicle: Klucel (hydroxypropylcellulose) (HPC)
[8] = dose: 25.0 mg/kg/injection, schedule: Q01DX009 (ip), vehicle: Klucel (hydroxypropylcellulose) (HPC)
[9] = dose: 50.0 mg/kg/injection, schedule: Q01DX009 (ip), vehicle: Klucel (hydroxypropylcellulose) (HPC)
[10] = dose: 100.0 mg/kg/injection, schedule: Q01DX009 (ip), vehicle: Klucel (hydroxypropylcellulose) (HPC)
[11] = dose: 200.0 mg/kg/injection, schedule: Q01DX009 (ip), vehicle: Klucel (hydroxypropylcellulose) (HPC)
[12] = dose: 400.0 mg/kg/injection, schedule: Q01DX009 (ip), vehicle: Klucel (hydroxypropylcellulose) (HPC)
[13] = dose: 50.0 mg/kg/injection, schedule: Q01DX009 (ip), vehicle: saline with Tween-80
[14] = dose: 100.0 mg/kg/injection, schedule: Q01DX009 (ip), vehicle: saline with Tween-80
[15] = dose: 200.0 mg/kg/injection, schedule: Q01DX009 (ip), vehicle: saline with Tween-80
[16] = dose: 12.5 mg/kg/injection, schedule: Q01DX009 (ip), vehicle: saline
[17] = dose: 20.0 mg/kg/injection, schedule: Q01DX009 (ip), vehicle: saline

SMILES: COC1=C(C)C(=O)C2=C(C1=O)C(CO)N1C(C#N)C3CC4C(C1C2N1CCOC41)N3C (centres undefined)
- T/C (dose: 0.25 mg/kg/injection, schedule: Q01DX009 (ip), vehicle: saline + alcohol): 117 % of control
- T/C (dose: 0.5 mg/kg/injection, schedule: Q01DX009 (ip), vehicle: saline + alcohol): 117 % of control
- T/C (dose: 1.0 mg/kg/injection, schedule: Q01DX009 (ip), vehicle: saline + alcohol): 112 % of control

SMILES: COc1ccc2c(NCCCCCCCCNc3c4ccccc4nc4cc(OC)ccc34)c3ccccc3nc2c1
- T/C (dose: 3.75 mg/kg/injection, schedule: Q01DX009 (ip), vehicle: distilled water + alcohol): 95 % of control

SMILES: O=C/C(Cl)=C(/Cl)C(=O)O
- T/C [1]: 99 % of control
- T/C [2]: 87 % of control
- T/C (dose: 10.0 mg/kg/injection, schedule: Q01DX009 (ip), vehicle: saline with Tween-80): 102 % of control
- T/C (dose: 20.0 mg/kg/injection, schedule: Q01DX009 (ip), vehicle: saline with Tween-80): 106 % of control

SMILES: NC1CC[N-]CC1.NC1CC[N-]CC1.NC1CC[N-]CC1.NC1CC[N-]CC1.[Cl][Rh][Cl]
- T/C [3]: 103 % of control
- T/C [4]: 101 % of control
- T/C [5]: 93 % of control

SMILES: NCC(=O)Nc1ccc(O)cc1
- T/C (dose: 150.0 mg/kg/injection, schedule: Q01DX009 (ip), vehicle: saline): 94 % of control
- T/C (dose: 300.0 mg/kg/injection, schedule: Q01DX009 (ip), vehicle: saline): 105 % of control

SMILES: COC(=O)[C@@H]1[C@H](O)[C@H](C)[C@H](O)[C@@](C)(O)/C=C\C=C(C)C(=O)Nc2c(C)c(OC(C)=O)c3c(c2O)C(=O)C(C)=C2OCOC(=C23)C(C)=C[C@@](C)(O)[C@H](O)[C@@H](C)[C@H]1OC(C)=O
- T/C [6]: 106 % of control
- T/C [7]: 99 % of control
- T/C [8]: 90 % of control
- T/C [9]: 91 % of control
- T/C (dose: 75.0 mg/kg/injection, schedule: Q01DX009 (ip), vehicle: saline with Tween-80): 97 % of control
- T/C [10]: 95 % of control
- T/C (dose: 150.0 mg/kg/injection, schedule: Q01DX009 (ip), vehicle: saline with Tween-80): 91 % of control
- T/C (dose: 300.0 mg/kg/injection, schedule: Q01DX009 (ip), vehicle: saline with Tween-80): 87 % of control

SMILES: Cc1cc(Cl)ccc1NS(=O)(=O)c1ccccc1
- T/C [10]: 88 % of control
- T/C [11]: 88 % of control

SMILES: NC(=O)N1CCN(CCCN2c3ccccc3Sc3cc(Cl)ccc32)CC1
- T/C (dose: 3.12 mg/kg/injection, schedule: Q01DX009 (ip), vehicle: Klucel (hydroxypropylcellulose) (HPC)): 92 % of control
- T/C [6]: 98 % of control
- T/C [7]: 101 % of control
- T/C [8]: 106 % of control

SMILES: O=[N+]([O-])c1ccc(Oc2ccc(Cl)cc2)cc1
- T/C [10]: 93 % of control
- T/C [11]: 93 % of control
- T/C [12]: 100 % of control

SMILES: O=S(=O)(/N=C1C=C/C(=N/S(=O)(=O)c2ccccc2)C2C3C=CC(C3)C/12)c1ccccc1 (centres undefined)
- T/C (dose: 100.0 mg/kg/injection, schedule: Q04DX003 (ip), vehicle: Klucel (hydroxypropylcellulose) (HPC)): 92 % of control
- T/C (dose: 200.0 mg/kg/injection, schedule: Q04DX003 (ip), vehicle: Klucel (hydroxypropylcellulose) (HPC)): 86 % of control

SMILES: CCOc1ccccc1NC(=O)c1cccc(C(=O)Nc2ccccc2OCC)c1
- T/C [10]: 105 % of control
- T/C [11]: 94 % of control
- T/C [12]: 94 % of control

SMILES: CC[C@H](C)[C@H](NC(=O)OC(C)(C)C)C(=O)ON1C(=O)CCC1=O
- T/C [13]: 92 % of control
- T/C [14]: 97 % of control
- T/C [15]: 90 % of control

SMILES: NC(=S)Nc1cccc(Cl)c1
- T/C [7]: 106 % of control
- T/C [8]: 102 % of control
- T/C [9]: 100 % of control

SMILES: CC1OC(OCC2OC(Oc3c(-c4ccc(O)c(OS(=O)(=O)O)c4)oc4cc(O)cc(O)c4c3=O)C(O)C(O)C2O)C(O)C(O)C1O (centres undefined)
- T/C (dose: 4.0 mg/kg/injection, schedule: Q01DX009 (ip), vehicle: saline): 101 % of control
- T/C (dose: 8.0 mg/kg/injection, schedule: Q01DX009 (ip), vehicle: saline): 105 % of control
- T/C (dose: 16.0 mg/kg/injection, schedule: Q01DX009 (ip), vehicle: saline): 101 % of control
- T/C (dose: 32.0 mg/kg/injection, schedule: Q01DX009 (ip), vehicle: saline): 100 % of control
- T/C (dose: 64.0 mg/kg/injection, schedule: Q01DX009 (ip), vehicle: saline): 103 % of control

SMILES: O=NN(CCF)C(=O)NC1CCC(=O)NC1=O (centres undefined)
- T/C (dose: 1.88 mg/kg/injection, schedule: Q01DX001 (ip), vehicle: saline): 105 % of control
- T/C (dose: 7.5 mg/kg/injection, schedule: Q01DX001 (ip), vehicle: saline): 120 % of control
- T/C (dose: 15.0 mg/kg/injection, schedule: Q01DX001 (ip), vehicle: saline): 166 % of control
- T/C (dose: 30.0 mg/kg/injection, schedule: Q01DX001 (ip), vehicle: saline): 189 % of control
- T/C (dose: 60.0 mg/kg/injection, schedule: Q01DX001 (ip), vehicle: saline): 209 % of control

SMILES: O=c1[nH]c(=O)n(C2CC(O)C(CO)O2)cc1C(F)(F)F (centres undefined)
- T/C [16]: 104 % of control
- T/C [17]: 105 % of control
- T/C (dose: 25.0 mg/kg/injection, schedule: Q01DX009 (ip), vehicle: saline): 102 % of control
- T/C (dose: 50.0 mg/kg/injection, schedule: Q01DX009 (ip), vehicle: saline): 112 % of control

SMILES: S=C([S][Sn]([c]1ccccc1)([c]1ccccc1)[c]1ccccc1)N1CCCCC1
- T/C (dose: 3.12 mg/kg/injection, schedule: Q01DX009 (ip), vehicle: saline with Tween-80): 100 % of control
- T/C [3]: 107 % of control
- T/C [4]: 103 % of control
- T/C [5]: 99 % of control

SMILES: Brc1ccc(-c2csc(Nc3nc(-c4ccc(Br)cc4)cs3)n2)cc1
- T/C [4]: 105 % of control
- T/C [5]: 122 % of control
- T/C (dose: 25.0 mg/kg/injection, schedule: Q04DX003 (ip), vehicle: saline with Tween-80): 97 % of control
- T/C [13]: 89 % of control and 107 % of control
- T/C (dose: 50.0 mg/kg/injection, schedule: Q04DX003 (ip), vehicle: saline with Tween-80): 100 % of control
- T/C (dose: 100.0 mg/kg/injection, schedule: Q04DX003 (ip), vehicle: saline with Tween-80): 86 % of control and 94 % of control
- T/C (dose: 200.0 mg/kg/injection, schedule: Q04DX003 (ip), vehicle: saline with Tween-80): 86 % of control

SMILES: Nc1nc(=S)c2ncn(C3CC(O)C(CO)O3)c2[nH]1 (centres undefined)
- T/C (dose: 1.25 mg/kg/injection, schedule: Q01DX009 (ip), vehicle: saline with Tween-80): 104 % of control
- T/C (dose: 1.25 mg/kg/injection, schedule: Q01DX009 (ip), vehicle: saline): 102 % of control
- T/C [1]: 117 % of control
- T/C (dose: 2.5 mg/kg/injection, schedule: Q01DX009 (ip), vehicle: saline): 93 % of control
- T/C [2]: 113 % of control
- T/C (dose: 5.0 mg/kg/injection, schedule: Q01DX009 (ip), vehicle: saline): 104 % of control
- T/C (dose: 10.0 mg/kg/injection, schedule: Q01DX009 (ip), vehicle: saline): 104 % of control
- T/C (dose: 12.5 mg/kg/injection, schedule: Q01DX009 (ip), vehicle: saline sonified): 112 % of control
- T/C [17]: 100 % of control
- T/C (dose: 25.0 mg/kg/injection, schedule: Q01DX009 (ip), vehicle: saline sonified): 110 % of control
- T/C (dose: 50.0 mg/kg/injection, schedule: Q01DX009 (ip), vehicle: saline sonified): 87 % of control

SMILES: CCCCNc1cc(Nc2ccc(Br)cc2)nc(N)n1
- T/C [13]: 95 % of control
- T/C [14]: 91 % of control

SMILES: Nc1nc2nc[nH]c2c(=O)[nH]1
- T/C (dose: 25.0 mg/kg/injection, schedule: Q01DX009 (ip), vehicle: suspension in saline): 95 % of control
- T/C (dose: 50.0 mg/kg/injection, schedule: Q01DX009 (ip), vehicle: suspension in saline): 97 % of control
- T/C (dose: 100.0 mg/kg/injection, schedule: Q01DX009 (ip), vehicle: suspension in saline): 88 % of control
- T/C (dose: 200.0 mg/kg/injection, schedule: Q01DX009 (ip), vehicle: suspension in saline): 86 % of control

SMILES: COc1cc([N+](=O)[O-])ccc1NC(=O)Nc1ccc(Cl)cc1
- T/C [13]: 93 % of control
- T/C [14]: 91 % of control
- T/C [15]: 101 % of control

SMILES: CN1C2CCC1CC(OC1c3ccccc3CCc3ccccc31)C2 (centres undefined)
- T/C (dose: 3.12 mg/kg/injection, schedule: Q01DX009 (ip), vehicle: saline): 90 % of control
- T/C (dose: 6.25 mg/kg/injection, schedule: Q01DX009 (ip), vehicle: saline): 97 % of control
- T/C [16]: 97 % of control

From PubChem BioAssay AID192 (DTP/NCI, 2004)
